Laboratory results as given in patent US20220226270A1, “VERY-LONG-CHAIN POLYUNSATURATED FATTY ACIDS, ELOVANOID HYDROXYLATED DERIVATIVES, AND METHODS OF USE” (Board of Supervisors of Louisiana State University and …, priority 2019, published 2022).

Legend:
primary human RPE cells = experiment: UOS-induced cell death in primary human RPE cells (Hoechst staining); format: cell-based; conditions: for UOS-induced primary human RPE cell death: UOS for 16 h + 32:6n3 or 34:6n3 (FIG. 8C); for cell death (apoptosis): UOS with H2O2 (800 μM), 16 h, VLC-PUFAs 3 μM each, NPD1 200 nM, UOS alone 50% cell death
Procedure: Exposure of RPE cells to UOS and VLC-PUFA: For cell viability assay experiments hRPE cells were treated concomitantly with NPD1 (200 nM), 32-6, 34-6 (3 μM each) fatty acids or both 32-6 and 34-6 simultaneously. The hRPE medium was supplemented with 3 μM of 32-6 and 34-6 for the entire duration of the experiment. 15 lox-1 inhibitor (10 μM) was added to the cells 1 hour prior the OS induction and kept throughout the experiment. Cells were fixed with 4% PFA and stained with Hoescht.
To assess cell death, hRPE and ARPE-19 cells were fixed with methanol for 15 mins, washed with 1× PBS then loaded with 2 μM Hoechst dissolved in a Locke's solution (Promega) and incubated for another 15 mins before imaging. Cells were then viewed by using a Zeiss LSM 510 confocal microscope under UV fluorescence. Images were recorded and cell apoptosis was assessed by using an automated unbiased method.
To test the efficacy of 32:6n3 and 34:6n3 VLC-PUFAs to modulate human RPE cell homeostasis and survival rates, human RPE cells undergoing UOS were incubated with both VLC-PUFAs (3 μM each) and NPD1 (200 nM) 16 h. The addition of H2O2 (800 μM) induced apoptosis (50% cell death).
hRPE cells, formerly serum deprived for 12 h, were incubated with the 15 lipoxygenase 1 (15-LOX-1) inhibitor (PD146176) (10 μM for 1 h), then bathed with 600 μM H2O2/TNF-α in conjunction with a mixture of 32:6n3 and 34:6n3 (3 μM each) for 16 h. The 15-LOX-1 inhibitor sensitizes cells; therefore, a lower concentration of H2O2 than in the cytoprotection experiment was used.

[1] = system: cerebral cortical mixed neuronal cells; experiment: NMDA excitotoxicity in cerebral cortical mixed neuronal cultures; format: cell-based, rat; conditions: for synergy with NPD1 in neuroprotection against NMDA excitotoxicity: ELV 200 nM + NPD1 100 nM, NMDA 100 μM, 12 h (FIG. 16A); for NMDA dose-dependent increase of apoptotic nuclei: NMDA 25, 50 or 100 μM; for neuroprotection on addition of MK801 and NPD1 together, versus ELV alone: NMDA excitotoxicity; for frequency distribution of pyknotic vs non-pyknotic nuclei (nuclear size peak) after NMDA: 500 nM, NMDA 100 μM 12 h, DIV 12, Hoechst
From the text: (§1) Primary cultures of cortical neurons: Primary cultures of cortical and hippocampal neurons were harvested from 18-day-old embryos (E18) taken from timed-pregnant, two-month-old Sprague-Dawley (SD) rats (Charles River Lab., Wilmington, Mass.). Briefly, timed-pregnant SD rats were euthanized and embryos were collected in sterile conditions. Embryonic brains were dissected out by forceps on ice and placed in a petri dish containing ice-cold Hank's Balanced Salt Solution (HBSS) (GIBCO). Meninges were removed under a dissecting microscope and cortical tissues were chopped into small pieces with micro-spring scissors. These tissues were transferred to 15 ml tubes containing trypsin-EDTA (0.025% in HBSS) and DNase I. The tubes were incubated in 37° C. chamber for 15 mins and were agitated every 5 mins. After stopping the trypsinization with 5 ml 10% FBS, these tissues were triturated 15 times with a fire polished Pasteur pipet. Cell clumps were left to settle for 2 mins and the supernatant was transferred to a 15 ml Eppendorf tube. The supernatant was filtered through a 70 μm pore-sized filter (Corning cell strainer) and centrifuged for 5 mins at 1000 rpm. The cells were then resuspended in Neurobasal medium (GIBCO) containing 2% B27 (GIBCO) and 2% N2 (GIBCO) supplements, along with 0.5 mM glutamine, 50 U/ml penicillin/streptomycin.
(§2) Cells were counted using a Neubauer hemocytometer. 1×10^6 cells were seeded on poly-D-lysine-coated 12 well cell culture dish (CORNING) and cultured in incubator (37° C., 5% CO2). Culture medium was first replaced after 24 h, then half of the medium was replaced with fresh medium every three days. As a result, approximately, 90% purity of neurons was obtained as determined by class-III-β tubulin, GFAP and Hoechst 33258 staining. Cells were maintained in culture for about 2 weeks until they were exposed to uncompensated oxidative stress, OGD, or NMDA excitotoxicity.
(§3) After 90 mins of OGD exposure, cells were returned to the original medium (Neurobasal medium (GIBCO) containing 2% B27 (GIBCO) and 2% N2 (GIBCO) supplements, along with 0.5 mM glutamine, 50 U/ml penicillin/streptomycin) and placed in a normoxic chamber (37° C., 5% CO2) for 2 h. Then the medium was changed with medium containing either ELV-N32 or ELV-N34 [500 nM] and maintained in a normoxic chamber (37° C., 5% CO2) for 12 h, after which cells were sampled and assayed for cell viability using different methods as previously described (25-28). Cerebral cortical mixed neuronal cells or hippocampal cells in culture were exposed to either NMDA or uncompensated oxidative stress (UOS) for 12 h by addition of either NMDA (25 μM, 50 μM, or 100 μM) concentration or by the addition of TNFα (10 ng/mL) and H2O2 (50 μM, 100 μM, or 200 μM). Cell viability and neuroprotection in the presence of ELV-N32, ELV-N34, 32:6, or 34:6 were assayed after 12 h.
(§4) Hoechst staining and unbiased image analysis: Cells were washed with 1× Dulbecco's Phosphate Buffered Saline (DPBS) containing no calcium or magnesium (GIBCO) and fixed for 10 mins using ice-cold 4% paraformaldehyde (PFA) followed by 15 mins incubation in 100% methanol. Cells were washed with 1× Phosphate Buffered Saline (PBS) pH 7.4 (GIBCO) and incubated in PBS containing 20 μM Hoechst 33258 (Molecular Probes) for 20 mins. Cells were then washed 3 times with 1× PBS and stored in 1× PBS at 4° C. until they were imaged for microscopy.
(§5) One 4×4 tile mosaic was acquired from the center of each well using a Zeiss 510 Meta laser confocal microscope and LSM 510 Meta software. Images were imported into image analysis software ImageJ (National Institutes of Health, Bethesda, Md.) and batch processed using custom macros. An Otsu auto threshold was applied to each image of Hoechst-stained nuclei, and the area of each detected object was recorded. Objects with areas <10 μm^2 were excluded from analysis. To estimate percentage non-pyknotic nuclei, a size cutoff value was chosen above which objects were assumed to be non-pyknotic. […]

[2] = system: cerebral cortical mixed neuronal cells; experiment: Uncompensated oxidative stress (TNFα plus H2O2) in cerebral cortical mixed neuronal cultures; format: cell-based, rat; conditions: for UOS dose-dependent increase of apoptotic nuclei: 200 nM (FIG. 16B); for neuroprotection against uncompensated oxidative stress: 200 nM, 12 h TNFα 10 ng/mL and H2O2 (50, 100 or 200 μM)
From the text: as §1, §2, §3, §4, §5

## CC/C=C\C/C=C\C/C=C\C/C=C\C/C=C\C/C=C\CCCCCCCCCCCCC(=O)O [32:6n3, (14Z,17Z,20Z,23Z,26Z,29Z)-dotriaconta-14,17,20,23,26,29-hexaenoic acid]
Primary human RPE cells
  UOS-induced primary human RPE cell death: cell death was prevented
  cell death (apoptosis): 4%
[1]; 250 nM (FIG. 17 graph D)
  NMDA excitotoxicity (precursor, 250 nM): attenuate NMDA excitotoxicity

## CC/C=C\C/C=C\C/C=C\C/C=C\C/C=C\C/C=C\CCCCCCCCCCCCCCC(=O)O [34:6n3, (16Z,19Z,22Z,25Z,28Z,31Z)-tetratriaconta-16,19,22,25,28,31-hexaenoic acid]
Primary human RPE cells
  UOS-induced primary human RPE cell death: cell death was prevented
  cell death (apoptosis): 18%
[1]; 500 nM (FIG. 16H)
  NMDA receptor-mediated excitotoxicity (precursor, 500 nM): attenuates

## CC/C=C\C[C@H](O)\C=C/C=C/C=C/[C@H](O)C/C=C\C/C=C\CCCCCCCCCCCCC(=O)OC [ELV-N32-Me, methyl (14Z,17Z,20R,21E,23E,25Z,27S,29Z)-20,27-dihydroxydotriaconta-14,17,21,23,25,29-hexaenoate]
[1]
  synergy with NPD1 in neuroprotection against NMDA excitotoxicity: showed synergy
  NMDA dose-dependent increase of apoptotic nuclei: compensated for
  neuroprotection on addition of MK801 and NPD1 together, versus ELV alone: improved the neuroprotection
[1]; versus ELV-N32-Na and NPD1 together
  relative potency of combination with NPD1: more potent
[2]
  UOS dose-dependent increase of apoptotic nuclei: counteracted
  neuroprotection against uncompensated oxidative stress: evoked neuroprotection

## CC/C=C\C[C@H](O)\C=C/C=C/C=C/[C@H](O)C/C=C\C/C=C\CCCCCCCCCCCCC(=O)[O-].[Na+] [ELV-N32-Na, sodium (14Z,17Z,20R,21E,23E,25Z,27S,29Z)-20,27-dihydroxydotriaconta-14,17,21,23,25,29-hexaenoate]
[1]
  frequency distribution of pyknotic vs non-pyknotic nuclei (nuclear size peak) after NMDA: positive rightward shift
  synergy with NPD1 in neuroprotection against NMDA excitotoxicity: showed synergy
  NMDA dose-dependent increase of apoptotic nuclei: compensated for
  neuroprotection on addition of MK801 and NPD1 together, versus ELV alone: improved the neuroprotection
[2]
  UOS dose-dependent increase of apoptotic nuclei: counteracted
  neuroprotection against uncompensated oxidative stress: evoked neuroprotection
[2]; listed as ELV-N32 Na
  neuroprotection against uncompensated oxidative stress: neuroprotection elicited

## CC/C=C\C[C@H](O)\C=C/C=C/C=C/[C@H](O)C/C=C\C/C=C\CCCCCCCCCCCCCCC(=O)OC [ELV-N34-Me, methyl (16Z,19Z,22R,23E,25E,27Z,29S,31Z)-22,29-dihydroxytetratriaconta-16,19,23,25,27,31-hexaenoate]
[1]
  frequency distribution of pyknotic vs non-pyknotic nuclei (nuclear size peak) after NMDA: positive rightward shift

## CC/C=C\C[C@H](O)\C=C/C=C/C=C/[C@H](O)C/C=C\C/C=C\CCCCCCCCCCCCCCC(=O)[O-].[Na+] [ELV-N34-Na, sodium (16Z,19Z,22R,23E,25E,27Z,29S,31Z)-22,29-dihydroxytetratriaconta-16,19,23,25,27,31-hexaenoate]
[2]
  neuroprotection against uncompensated oxidative stress: neuroprotection elicited
